In publication PMC12429696, “The Neurotropic Activity of Novel Dermorphin Analogs Active in Systemic and Noninvasive Administration” (International Journal of Molecular Sciences, 2025):
“Also recorded” adds a separate entry of the source. Square brackets hold non-standard residues; d marks the D form. Ends that are not written are not given here.

Columns and labels:
mice [1] = experiment: Hot plate test in mice; type: in vivo; conditions: 50 mg/kg, 30 and 60 min after administration
Experimental: (§1) Two tests, “tail-flick” and “hot plate,” were used to evaluate the analgesic action of peptides administered intraperitoneally and intra-gastrically.
(§2) The control groups consisted of mice injected with solvent. The tested substances were administered to the animals intraperitoneally and intragastrically in a volume of 0.1 mL of saline per 10 g of body weight. The pain response threshold was measured before and 30 and 60 min after administration.
The “hot plate” test evaluates the pain reaction to thermal irritation of the mouse paw. The Hot Plate Model 7280 (Ugo Basile S.R.L., Gemonio, Italy) analgesimeter was used for this test. The maximal duration of the pain stimulus (thermal irritation) was set at 60 s.
(§3) In both tests, the final indicator of analgesic action was defined as a 50% or more significant effect on the number of animals in each experimental group, expressed as a percentage of the total number of animals in that group. […]

mice [2] = experiment: Tail-flick test (radiant heat) in mice; type: in vivo; conditions: 50 mg/kg; for analgesic action in tail-flick test: 30 and 60 min after administration
From the text: as §1
The pain stimulus was applied locally to the tail as radiant heat using a Tail Flick Analgesia Meter (Hugo Sachs Elektronik, Germany). A tail-flick latent period of 6 s was considered the maximum time for applying the stimulus (Equation (1): tmax—6 s, maximal duration of pain stimulus).
as §2, §3

[3] = system: isolated preparations of guinea pig ileal smooth muscle; experiment: Opioid activity on electrically stimulated isolated guinea pig ileum (GPI); type: cell-based; conditions: inhibition of electrically stimulated contractions of GPI segment, Krebs solution 34 °C, 10^−9 to 10^−6 M, tests in duplicate
From the text: Dermorphin analogs have been tested using the standard guinea pig ileum (GPI) model, The GPI is rich in µ-opioid receptors. Ten peptides were suppressed via electrical stimulation contractions of segment GPI in the studied concentration range (10^−9 to 10^−6 M) (Table 1).
The opioid receptor antagonist naloxone (10^−6 M) prevented or weakened the action of the compounds under investigation, confirming the opioid mechanism of their action. […] Thus, new dermorphin analogs can be agonists of µ-type opioid receptors. However, this needs to be verified using molecular modeling methods in further research. Attila M. et al. (1993) investigated the potential binding of 16 dermorphin analogs to µ and δ opioid receptors in brain cells.
The peripheral opioid activity of the peptides was assessed according to known methodology. A segment of guinea pig ileum (approximately 1 cm long) was placed into a 10 mL organ bath containing Krebs solution at 34 °C. Single pulses stimulated the segment of the ileum (1 g) with a duration of 1 ms and a frequency of 0.1 Hz at 80 V. Contractions were recorded in isometric mode using a K30 sensor (Hugo Sachs Elektronic KG, March, Germany).
All tests for each molecule were performed in duplicate. Based on the data obtained, dose-effect curves were plotted, and the IC50 index was determined as the concentration of the substance that causes 50% of the maximal inhibitory effect.

κ receptors = system: κ receptors; parameters: method as in PMID 3033543; conditions: rat brain; cited from earlier work
rats [4] = experiment: Water immersion tail-flick test in rats; type: in vivo, Wistar rats; conditions: for duration of analgesic effect: intraperitoneal, 5 mg/kg, water tail-flick 56 °C
µ-opioid receptors = system: µ-opioid receptors; parameters: method as in PMID 3033543; conditions: cited from earlier work
δ-opioid receptors = system: δ-opioid receptors; parameters: method as in PMID 3033543; conditions: rat brain; cited from earlier work
rats [5] = experiment: Open field test in rats with intranasal administration; type: in vivo, Wistar rats; conditions: n = 7, open field 2 min
Experimental: The experiments were conducted in an automated “open-field” chamber that registered and processed computer data. They were conducted in two replicates on 64 male Wistar rats weighing 240–260 g. The “open-field” is a round arena with a diameter of 80 cm, lined with three concentric circles and eight diameters. During the experiment, the rat was placed in the center of the arena. Motor activity (measured as the number of segments passed), the number of departures from the arena wall, vertical activity (the number of rises on the hind legs), and the number of touches of the muzzle with the paws (washing) were visually assessed for two minutes. A 500-watt household electric bell and a 15-watt red lamp were placed 80 cm above the arena. The study was conducted in silence and under the light of the red lamp.
Animals were divided into groups: untrained intact animals and trained experimental animals. All animals were divided into five groups: • In the intact group, animals without training were injected with 0.05 mL of physiological solution one minute before being placed in the “open field.” (n = 33). • The control group consisted of animals adapted after a 5-day administration of 0.5 mL of saline (n = 10). • Single drug action at a 15 μg/kg dose was administered to adapted animals (n = 7). • Adapted animals (n = 7) received a 50 μg/kg dose of a single drug action. • Single drug action at a 150 μg/kg dose was administered to adapted animals (n = 7).

[6] = intracerebroventricular, 1.0 μg/kg

Molecule: COc1cccc(C2(O)CCCCC2CN(C)C)c1 (stereo not shown) [tramadol, reference compound]
- analgesic action in hot plate test (mice [1]; intragastric): no significant analgesic effect
- analgesic action in tail-flick test (mice [2]; intragastric): active

Molecule: Cyclo-[L-Lys(H-Tyr-D-Ala-Phe-D-Ala)-L-Glu(OH)] (head to tail) [D6]
- Index IC50 [3]: 0.57 µM

Molecule: Cyclo-[L-Lys(H-Tyr-D-Ala-Phe-D-Ala)-L-Glu-(L-TrpOMe)] (head to tail) [D7]
- Index IC50 [3]: 2 µM

Molecule: Cyclo-[L-Lys(H-Tyr-D-Ala-Phe-D-Ala-Tyr-Pro-Ser)-L-Glu(L-Trp-NH2)] (head to tail) [D3]
- analgesic action in hot plate test (mice [1]; intragastric): no significant analgesic effect
- analgesic action in hot plate test (mice [1]; intraperitoneal): highest activity for 60 min; also recorded: active as tramadol
- Index IC50 [3]: 0.033 µM
- analgesic action in tail-flick test (mice [2]; intragastric): active after 30 and 60 min
- duration of activity in tail-flick test (mice [2]; intraperitoneal): 60 min
- analgesic action in tail-flick test (mice [2]; intraperitoneal): high analgesic activity

Molecule: Cyclo-[L-Lys(H-Tyr-D-Ala-Phe-D-Ala-Tyr-Pro-Ser)-L-Glu(L-Trp-OH)] (head to tail) [D4]
- analgesic action in hot plate test (mice [1]; intragastric): no significant analgesic effect
- analgesic action in hot plate test (mice [1]; intraperitoneal): moderately active; also recorded: active as tramadol
- Index IC50 [3]: 0.011 µM
- analgesic action in tail-flick test (mice [2]; intragastric): active after 30 and 60 min
- analgesic action in tail-flick test (mice [2]; intraperitoneal): high analgesic activity

Molecule: H-RY[dA]F[dA]-OH (SMILES C[C@@H](NC(=O)[C@H](Cc1ccccc1)NC(=O)[C@@H](C)NC(=O)[C@H](Cc1ccc(O)cc1)NC(=O)[C@@H](N)CCCNC(=N)N)C(=O)O) [D9]
- Index IC50 [3]: 1 µM

Molecule: H-Tyr-D-Ala-Phe-Gly-Tyr-Pro-Ser-NH2 [D1, reference compound]
- analgesic action in hot plate test (mice [1]; intragastric): did not exhibit analgesic action
- analgesic action in hot plate test (mice [1]; intraperitoneal): active as tramadol
- affinity for κ receptors (κ receptors): low affinity
- duration of analgesic effect (rats [4]): approximately 1 h
- Index IC50 [3]: 0.0025 µM
- affinity for µ-opioid receptors (µ-opioid receptors): very high affinity
- affinity for δ-opioid receptors (δ-opioid receptors): low affinity
- analgesic action in tail-flick test (mice [2]; intragastric): did not exhibit analgesic action
- duration of activity in tail-flick test (mice [2]; intraperitoneal): 60 min

Molecule: H-Y[dA]F[dA]-OH (SMILES C[C@@H](NC(=O)[C@H](Cc1ccccc1)NC(=O)[C@@H](C)NC(=O)[C@@H](N)Cc1ccc(O)cc1)C(=O)O) [D10, reference compound]
- Index IC50 [3]: 1 µM

Molecule: H-Y[dA]F[dA]YPS-NHMe (SMILES CNC(=O)[C@H](CO)NC(=O)[C@@H]1CCCN1C(=O)[C@H](Cc1ccc(O)cc1)NC(=O)[C@@H](C)NC(=O)[C@H](Cc1ccccc1)NC(=O)[C@@H](C)NC(=O)[C@@H](N)Cc1ccc(O)cc1) [D2]
- analgesic action in hot plate test (mice [1]; intragastric): no significant analgesic effect
- analgesic action in hot plate test (mice [1]; intraperitoneal): significant activity only at 30 min; also recorded: active only for 30 min
- analgesic effect (rats [4]; [6]): potent analgesia
- observed side effects (rats [4]; [6]): severe muscle tension, and numbness
- observed side effects (rats [4]; intracerebroventricular, 2.5 μg/kg): complete immobility and catatonic effects
- analgesic effect (A) (rats [4]; intracerebroventricular, 2.5 μg/kg, n = 7): 100%
- observed side effects (rats [4]; intranasal, 0.5 µg/kg): short-term state of stupor
- analgesic effect (rats [4]; intranasal, 1.0 µg/kg): maximum long-lasting analgesia
- observed side effects (rats [4]; intranasal, 1.0 µg/kg): complete stupor
- duration of analgesic effect (rats [4]): up to 5 h
- Defecation (rats [5]; 15 µg/kg): 0.92 ± 0.26
- Dive (rats [5]; 15 µg/kg): 6.17 ± 1.63
- Grooming (rats [5]; 15 µg/kg): 1.58 ± 0.42
- Path (rats [5]; 15 µg/kg): 23.83 ± 7.16
- Stand (rats [5]; 15 µg/kg): 8.83 ± 3.03
- Urination (rats [5]; 15 µg/kg): 0.25 ± 0.13
- Defecation (rats [5]; 50 µg/kg): 1.10 ± 0.18
- Dive (rats [5]; 50 µg/kg): 3.40 ± 0.76
- Grooming (rats [5]; 50 µg/kg): 0.90 ± 0.46
- Path (rats [5]; 50 µg/kg): 21.80 ± 6.16
- Stand (rats [5]; 50 µg/kg): 4.50 ± 1.35
- Urination (rats [5]; 50 µg/kg): 0.20 ± 0.13
- Defecation (rats [5]; 150 µg/kg): 0.60 ± 0.22
- Dive (rats [5]; 150 µg/kg): 2.90 ± 0.99
- Grooming (rats [5]; 150 µg/kg): 1.00 ± 0.39
- Path (rats [5]; 150 µg/kg): 14.80 ± 3.80
- Stand (rats [5]; 150 µg/kg): 4.70 ± 1.45
- Urination (rats [5]; 150 µg/kg): 0.10 ± 0.10
- Index IC50 [3]: 0.0095 µM
- analgesic action in tail-flick test (mice [2]; intragastric): active in the “tail-flick” test only 30 min after administration

Molecule: H-Y[dA]F[dA]YPS-OH (SMILES C[C@@H](NC(=O)[C@H](Cc1ccccc1)NC(=O)[C@@H](C)NC(=O)[C@@H](N)Cc1ccc(O)cc1)C(=O)N[C@@H](Cc1ccc(O)cc1)C(=O)N1CCC[C@H]1C(=O)N[C@@H](CO)C(=O)O) [D5]
- Index IC50 [3]: 0.76 µM

Molecule: RY[dA]FG-OH (N-terminus assumed; SMILES C[C@@H](NC(=O)[C@H](Cc1ccc(O)cc1)NC(=O)[C@@H](N)CCCNC(=N)N)C(=O)N[C@@H](Cc1ccccc1)C(=O)NCC(=O)O) [D8]
- Index IC50 [3]: 3 µM
